Data from PubChem BioAssay AID1259411 (Chemical Carcinogenesis Research Information System (CCRIS), 2018).
The source made the active and inactive calls. How the calls were made is not given here.

Tested on: rodent carcinogenicity bioassays, tumor incidence
Test: CCRIS carcinogenicity studies
Method in brief: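 Archive of carcinogenicity, mutagenicity, tumor promotion and tumor inhibition results drawn from journals, NCI reports and other sources, expert-reviewed; covers 1985-2011 and is no longer updated.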

## P
Species: RAT, Strain/Sex: F344/FEMALE, Route: INHALATION, Dose: 0, 0.3, 1.0, 3.0 PPM 6 HR/D 5 D/WK FOR 104 WK (STUDY DURATION: 104 WK), Dose: 0, 0.3, 1.0, 3.0 PPM 6 HR/D 5 D/WK FOR 104 WK (STUDY DURATION: 104 WK)
  carcinogen call: inactive; negative
Species: RAT, Strain/Sex: F344/MALE, Route: INHALATION, Dose: 0, 0.3, 1.0, 3.0 PPM 6 HR/D 5 D/WK FOR 104 WK (STUDY DURATION: 104 WK), Dose: 0, 0.3, 1.0, 3.0 PPM 6 HR/D 5 D/WK FOR 104 WK (STUDY DURATION: 104 WK)
  carcinogen call: inactive; negative

## COC(=O)C1=C(C)NC(C)=C(C(=O)OCC(C)(C)CN(C)Cc2ccccc2)C1c1cc([N+](=O)[O-])ccc1F (stereo not drawn)
Species: RAT, Strain/Sex: F344/FEMALE, Route: ORAL, Dose: 0, 0.67, 2, 6 MG/KG/D IN DIET FOR 104 WK (STUDY DURATION: 104 WK), Dose: 0, 0.67, 2, 6 MG/KG/D IN DIET FOR 104 WK (STUDY DURATION: 104 WK)
  carcinogen call: inactive; negative
Species: RAT, Strain/Sex: F344/MALE, Route: ORAL, Dose: 0, 0.67, 2, 6 MG/KG/D IN DIET FOR 104 WK (STUDY DURATION: 104 WK), Dose: 0, 0.67, 2, 6 MG/KG/D IN DIET FOR 104 WK (STUDY DURATION: 104 WK)
  carcinogen call: inactive; negative

## O=C1NCCN1c1ncc([N+](=O)[O-])s1
Species: HAMSTER, Route: ORAL, Tumor Site: Type of Lesion: FORESTOMACH, URINARY BLADDER
  carcinogen call: active; positive
Species: MOUSE, Route: ORAL, Tumor Site: Type of Lesion: FORESTOMACH, MAMMARY GLAND, OVARIES, LUNG, URINARY BLADDER, Tumor Site: Type of Lesion: FORESTOMACH, MAMMARY GLAND, OVARIES, LUNG, URINARY BLADDER
  carcinogen call: active; positive

## CC/C(=C(\c1ccc(O)cc1)c1ccc(OCCN(C)C)cc1)c1ccccc1
Species: RAT, Strain/Sex: SPRAGUE-DAWLEY/FEMALE, Route: DERMAL, Dose: 0, 20, 140, 1000 UG/KG/D FOR 101 WK (STUDY DURATION: 101 WK), Dose: 0, 20, 140, 1000 UG/KG/D FOR 101 WK (STUDY DURATION: 101 WK)
  carcinogen call: inactive; negative

## CCN(CC)CC#CC(C)(C)OC(=O)C(O)(c1ccccc1)C1CCCCC1 (stereo not drawn)
Species: MOUSE, Strain/Sex: B6C3F1/FEMALE, Route: ORAL, Dose: 0, 30, 100, 300 MG/KG/D IN DIET FOR 78 WK (STUDY DURATION: 78 WK), Dose: 0, 30, 100, 300 MG/KG/D IN DIET FOR 78 WK (STUDY DURATION: 78 WK)
  carcinogen call: inactive; negative
Species: MOUSE, Strain/Sex: B6C3F1/MALE, Route: ORAL, Dose: 0, 30, 100, 300 MG/KG/D IN DIET FOR 78 WK (STUDY DURATION: 78 WK), Dose: 0, 30, 100, 300 MG/KG/D IN DIET FOR 78 WK (STUDY DURATION: 78 WK)
  carcinogen call: inactive; negative
Species: RAT, Strain/Sex: F344/FEMALE, Route: ORAL, Dose: 0, 30, 100 MG/KG/D IN DIET FOR 2 YR (STUDY DURATION: 2 YR), Dose: 0, 30, 100 MG/KG/D IN DIET FOR 2 YR (STUDY DURATION: 2 YR)
  carcinogen call: inactive; negative
Species: RAT, Strain/Sex: F344/MALE, Route: ORAL, Dose: 0, 10, 30, 100 MG/KG/D IN DIET FOR 2 YR (STUDY DURATION: 2 YR), Dose: 0, 10, 30, 100 MG/KG/D IN DIET FOR 2 YR (STUDY DURATION: 2 YR)
  carcinogen call: inactive; negative

## [O-][Cl+2]([O-])O
Species: MOUSE, Strain/Sex: B6C3F1/FEMALE (50, 50, 50, 50), Route: DRINKING WATER, Dose: 0, 500, 1000, 2000 MG/L FOR 105 WKS (STUDY DURATION: 105 WKS), Dose: 0, 500, 1000, 2000 MG/L FOR 105 WKS (STUDY DURATION: 105 WKS), Tumor Site: Type of Lesion: PANCREAS: ADENOMA OR CARCINOMA
  carcinogen call: equivocal
Species: MOUSE, Strain/Sex: B6C3F1/MALE (50, 50, 50, 50), Route: DRINKING WATER, Dose: 0, 500, 1000, 2000 MG/L FOR 105 WKS (STUDY DURATION: 105 WKS), Dose: 0, 500, 1000, 2000 MG/L FOR 105 WKS (STUDY DURATION: 105 WKS)
  carcinogen call: inactive; negative
Species: RAT, Strain/Sex: F344/N/FEMALE (50, 50, 50, 50), Route: DRINKING WATER, Dose: 0, 125, 1000, 2000 MG/L FOR 105 WK (STUDY DURATION: 105 WKS), Dose: 0, 125, 1000, 2000 MG/L FOR 105 WK (STUDY DURATION: 105 WKS)
  carcinogen call: inactive; negative; ntp reports as some evidence for thyroid but p values are not statisti
Species: RAT, Strain/Sex: F344/N/MALE (50, 50, 50, 50), Route: DRINKING WATER, Dose: 0, 125, 1000, 2000 MG/L FOR 105 WK (STUDY DURATION: 105 WKS), Dose: 0, 125, 1000, 2000 MG/L FOR 105 WK (STUDY DURATION: 105 WKS), Tumor Site: Type of Lesion: THYROID: FOLLICULAR CELL ADENOMA OR CARCINOMA
  carcinogen call: active; positive (p = 0.052); ntp reports as some evidence

## N#CN=C(N)N
Species: RAT, Strain/Sex: F344/FEMALE, Route: ORAL, Dose: 0, 2.5, 5% IN DIET FOR 104 WK (STUDY DURATION: 113 WK), Dose: 0, 2.5, 5% IN DIET FOR 104 WK (STUDY DURATION: 113 WK)
  carcinogen call: inactive; negative
Species: RAT, Strain/Sex: F344/MALE, Route: ORAL, Dose: 0, 2.5, 5% IN DIET FOR 104 WK (STUDY DURATION: 113 WK), Dose: 0, 2.5, 5% IN DIET FOR 104 WK (STUDY DURATION: 113 WK)
  carcinogen call: inactive; negative

## CCCCNC(=O)NS(=O)(=O)c1ccc(C)cc1
Species: MOUSE, Strain/Sex: B6C3F1/FEMALE, Route: ORAL, Dose: 0, 25000, 50000 PPM IN DIET, Dose: 0, 25000, 50000 PPM IN DIET
  carcinogen call: inactive; negative
Species: MOUSE, Strain/Sex: B6C3F1/MALE, Route: ORAL, Dose: 0, 25000, 50000 PPM IN DIET, Dose: 0, 25000, 50000 PPM IN DIET
  carcinogen call: inactive; negative
Species: RAT, Strain/Sex: F344/FEMALE, Route: ORAL, Dose: 0, 12000, 24000 PPM IN DIET, Dose: 0, 12000, 24000 PPM IN DIET
  carcinogen call: inactive; negative
Species: RAT, Strain/Sex: F344/MALE, Route: ORAL, Dose: 0, 12000, 24000 PPM IN DIET, Dose: 0, 12000, 24000 PPM IN DIET
  carcinogen call: inactive; negative

## CC1CN(N=O)CO1 (stereo not drawn)
Species: HAMSTER, Strain/Sex: SYRIAN/MALE, Route: INTRAGASTRIC, Dose: 0, 25 MG/ML IN 0.2 ML STERILIZED WATER 1/WK FOR 24 WK (TOTAL DOSE 120 MG) (STUDY DURATION: LIFESPAN), Tumor Site: Type of Lesion: LIVER: HEPATOCELLULAR CARCINOMA, ADENOMA, HEMANGIOSARCOMA, CHOLANGIOCARCINOMA, PANCREAS: DUCTAL CARCINOMA
  carcinogen call: active; positive
Species: RAT, Strain/Sex: F344/FEMALE, Route: ORAL, Dose: 40 MG/L IN DRINKING WATER FOR 50 WK, Tumor Site: Type of Lesion: LIVER: HEPATOCELLULAR CARCINOMA, HEMANGIOENDOTHELIAL SARCOMA
  carcinogen call: active; positive
